Data on 21 compounds can be found in patent US10130714B2 (priority 2012, dated 2018).

Entries after “also recorded” stand apart in the source; their conditions may differ. Where two headings read alike, the source gives them in different places. Some results are limits rather than exact numbers.

Data set [1] has as its system recombinant NIBRG-14 (A/Viet Nam/1194/2004) H5N1 virus. In words: microbe, parasite or virus in culture. It is filed as cell-based, avian H5N1 influenza virus. The conditions noted are these: for EC50: Influenza A virus, H5N1, read-out: EC50 against avian H5N1 virus.
The test system of the next data set is A/WSN/1933 (H1N1) virus. In words: Cytopathic prevention assay in MDCK cells, H1N1. As to conditions: for anti-influenza activity (in words): H1N1 virus. It is filed as cell-based, influenza A/WSN/1933 (H1N1). On the procedure:
The cytopathic prevention assays in Madin-Darby canine kidney (MDCK) cells were conducted to evaluate the anti-influenza activity. To our anticipation, the ZA-7-conjugates were potent inhibitors against human H1N1 virus (Table 2). The ZA-1-conjugates 9-12 also resumed anti-influenza activity in the cell-based assays. […] The anti-influenza activity could not be caused by caffeic esters alone. (Salomon, R. et al. Proc. Natl. Acad. Sci. U.S.A. 2007, 104, 12479)
The anti-flu activities of neuraminidase inhibitors were measured by the EC50 values that were the concentrations of NA inhibitor for 50% protection of the H1N1 CPE activities. Fifty μL diluted H1N1 at 100 TCID50 were mixed with equal volumes of NA inhibitors at varied concentrations. The mixtures were used to infect 100 μL of MDCK cells at 1×10^5 cells/mL in 96-wells. After 48 h incubation at 37° C. under 5.0% CO2, the cytopathic effects (CPE) were determined with CellTiter 96® AQueous Non-Radioactive Cell Proliferation Assay reagent as described above. Inhibitor EC50 value were determined by fitting the curve of percent CPE versus the concentrations of NA inhibitor using Graph Pad Prism 4.
A general note: Protection from cytopathic effect is a common read-out in antiviral testing.

The subject of data set [2] is influenza A/Cal/07/2009 H1N1. Set-up: species or system BALB/c mice. As to conditions: mouse, in vivo.
For the next data set, the system named is IL-6. Set-up: species or system mice. The conditions noted are these: mouse, in vivo.
For data set [3], the system named is mRNA encoding IL-6 in LPS-activated RAW264.7 cells. It is filed as cell-based.
For data set [4] the following is noted: Sprague Dawley, rat.
The subject of the next data set is IFN-γ. Set-up: species or system mice. As to conditions: mouse, in vivo.
Data set [5] relates to mRNA encoding TNF-α in LPS-activated RAW264.7 cells. It counts as cell-based.
Data set [6] concerns NIBRG-14 (A/VietNam/1194/2004) H5N1. It counts as in vivo, BALB/c mice. As to conditions: for survival of H5N1 infected mice (in words): 12 μmol/kg/day intranasal, 10 LD50 NIBRG-14, FIG. 17A/17B.
Data set [7] has as its target neuraminidase of influenza A/WSN/1933 (H1N1) virus (Influenza A virus, UniProt P03470). In words: biochemical. It is filed as biochemical.
For data set [8] the following is noted: humans; cited from earlier work.
The mark [9] stands for this setting: Influenza A virus, MDCK, A/WSN/1933 (H1N1) virus, table data are ranges or single assay results, read-out: EC50 (nM), anti-influenza activity.
[10] abbreviates: A/WSN/1933 (H1N1) virus, table data are ranges or single assay results, read-out: EC50 (nM), anti-influenza activity.

neuraminidase of influenza A/WSN/1933 (H1N1) virus, sequence (P03470 whole entry, looked up): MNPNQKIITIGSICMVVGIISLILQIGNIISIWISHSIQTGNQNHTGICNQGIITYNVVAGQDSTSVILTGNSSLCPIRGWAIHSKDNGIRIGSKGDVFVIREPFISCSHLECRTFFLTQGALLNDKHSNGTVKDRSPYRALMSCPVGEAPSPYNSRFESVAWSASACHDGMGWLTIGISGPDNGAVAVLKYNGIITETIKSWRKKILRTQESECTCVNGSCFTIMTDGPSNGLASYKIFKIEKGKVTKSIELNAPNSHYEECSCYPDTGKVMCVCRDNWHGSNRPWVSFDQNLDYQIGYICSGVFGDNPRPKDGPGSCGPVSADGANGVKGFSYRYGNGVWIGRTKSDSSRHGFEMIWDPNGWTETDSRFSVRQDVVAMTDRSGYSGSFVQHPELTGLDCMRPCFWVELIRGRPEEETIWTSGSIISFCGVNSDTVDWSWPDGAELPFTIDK

By IC50 is commonly meant the midpoint of a concentration-inhibition curve. Consider `CC(=O)NC1C(NC(=N)N)C=C(C(=O)O)OC1C(OC(=O)NCCCOC(=O)C=Cc1ccc(O)c(O)c1)C(O)CO` (centres unmarked) [ZA-7-CA (1)], for which, in data set [1], the “potency relative to zanamivir against H5N1” value is recorded as “about 13 fold” and the EC50 came out at 50 nM. The EC50 in the data set on A/WSN/1933 (H1N1) virus (setting [9]) lay within 1.4 to 10.6 nM. Besides, in data set [2], the “protection of H1N1 virus infected mice” value is on record as “greater protection than ZA, CA or ME”; the “protection of mice from influenza virus infection” value was “did not show significant protection”; the “survival of H1N1 infected mice (in words)” value was “all the mice died at day 12 except for those treated with conjugate 1; also recorded: all survived at day 14”; the “survival rate at day 14” value was determined as 40%. Further, in the data set on IL-6, the “level of IL-6 in serum” value was “lower”. In addition, the “mRNA encoding IL-6” value in data set [3] was “dose-dependent decreases”. Besides, the “stability / enzymatic cleavage in plasma” value in data set [4] is reported as “released a degradation product ZA-7-HP (6)”. In addition, the “level of IFN-γ in serum” value with IFN-γ is “lower”. In addition, the “mRNA encoding TNF-α” value in data set [5] is “dose-dependent decreases”. For the same compound, the “survival of H5N1 infected mice (in words)” value in [6] is “all survived”. In data set [7], this compound displayed an IC50 of 2.9 to 7.4 nM.
Take `CC(=O)NC1C(NC(=N)N)C=C(C(=O)O)OC1C(OC(=O)NCCCNC(=O)c1ccc2ccccc2c1O)C(O)CO` (centres unmarked) [ZA-7-HNAP-amide (8)]: the EC50 in the data set with A/WSN/1933 (H1N1) virus (setting [9]) is 6.6 nM. The same compound registered a 50% inhibitory concentration (IC50) in [7] of 3.1 nM.
In general, bioavailability refers to dose-corrected exposure relative to a reference, in per cent. Consider `CC(=O)N[C@H]1[C@H]([C@H](O)[C@H](O)CO)OC(C(=O)O)=C[C@@H]1N=C(N)N` [ZA, zanamivir, reference compound], for which the EC50 in data set [1] is 680 nM; with A/WSN/1933 (H1N1) virus (setting [10]) it was 3.5 to 20.2 nM; with A/WSN/1933 (H1N1) virus (read-out: EC50 (nM), anti-influenza activity, A/WSN/1933 (H1N1) virus, table data are ranges or single assay results), 14 nM. Further, the “survival at day 14 / protection from virus-induced death” value in [2] is on record as 10%. The “survival of H1N1 infected mice (in words)” value in data set [2] is recorded as “all the mice died at day 12”. For the same compound, the bioavailability in data set [8] is on record as about 5%. The “survival of H5N1 infected mice (in words)” value in data set [6] is “did not improve the survival rate”.
Regarding `CC(=O)NC1C(NC(=N)N)C=C(C(=O)O)OC1C(OC(=O)NCCCOC(=O)c1ccc2ccccc2c1O)C(O)CO` (centres unmarked) [ZA-7-HNAP (4)], the EC50 in the data set on A/WSN/1933 (H1N1) virus (setting [9]) was in the range of 50 to 168 nM. The IC50 in [7] fell in the range of 0.7 to 3.6 nM.
In the case of `O=C(/C=C/c1ccc(O)c(O)c1)OCCCO` [3-hydroxypropyl caffeate, reference compound], in the data set on A/WSN/1933 (H1N1) virus, the “anti-influenza activity (in words)” value is “inactive”.
Same read-out and setting: the same measure for `CC(C)(C)OC(=O)NCCCOC(=O)C=Cc1ccc(O)c(O)c1` [3-(tert-butoxyamido)propyl caffeate, reference compound]: “inactive”.
With “3,4-(methylenedioxy)cinnamic acid [MCA, reference compound]”, the EC50 in the data set on A/WSN/1933 (H1N1) virus (setting [10]) is over 100000 nM. Besides, in data set [3], the “mRNA encoding IL-6” value was “dose-dependent decreases”. Moreover, the “mRNA encoding TNF-α” value in [5] is “dose-dependent decreases”. For the same compound, the “NA inhibitory activity (in words)” value in data set [7] is listed as “did not exhibit any NA inhibitory activity”. Besides, the IC50 in [7] (read-out: IC50 (nM), influenza neuraminidase inhibition) is over 100000 nM.
With `O=C(O)/C=C/c1ccc(O)c(O)c1` [CA, caffeic acid, reference compound], the EC50 with A/WSN/1933 (H1N1) virus (setting [9]) is over 100000 nM. The “survival of H1N1 infected mice (in words)” value in [2] is reported as “all the mice died at day 12”. Also, in data set [3], the “mRNA encoding IL-6” value is “dose-dependent decreases”. The “mRNA encoding TNF-α” value in [5] is listed as “dose-dependent decreases”. In addition, in data set [7], the “NA inhibitory activity (in words)” value is reported as “did not exhibit any NA inhibitory activity”.
As to `O=C(O)c1ccc2ccccc2c1O` [HNAP, 1-hydroxy-2-naphthoic acid, reference compound], in the data set with A/WSN/1933 (H1N1) virus (setting [9]), the EC50 is over 100000 nM.
On to `CC(=O)NC1C(N=C(N)N)C=C(C(=O)OCCCOC(=O)c2ccc3ccccc3c2O)OC1C(O)C(O)CO` (centres unmarked) [ZA-1-HNAP (12)], for which the EC50 in the data set with A/WSN/1933 (H1N1) virus (setting [9]) was found to be 48 nM. The compound further registered an IC50 in data set [7] of 590 nM.
Take `CC(=O)NC1C(NC(=N)N)C=C(C(=O)O)OC1C(OC(=O)NCCCNC(=O)C=Cc1ccc(O)c(O)c1)C(O)CO` (centres unmarked) [ZA-7-CA-amide (7)]: the EC50 in the data set with A/WSN/1933 (H1N1) virus (setting [10]) was 5.9 nM. The EC50 in the data set with A/WSN/1933 (H1N1) virus (setting [9]) is 5.1 nM. Also, in data set [2], the “survival at day 14” value was found to be 50%, the “survival at day 14 / protection from virus-induced death” value was determined as 100% and the “survival rate of H1N1 infected mice (in words)” value is listed as “did not improve the survival rate”. For the same compound, the “survival rate of H5N1 infected mice (in words)” value in data set [6] (1.2 μmol/kg/day intranasal, FIG. 17B) was “improved survival rate”. Also, in [6], the “survival of H5N1 infected mice (in words)” value is listed as “greater potency”. In [7], this compound had an IC50 of 41.3 to 60.3 nM.
`CC(=O)NC1C(NC(=N)N)C=C(C(=O)O)OC1C(OC(=O)NCCCOC(=O)c1cc(N)ccc1O)C(O)CO` (centres unmarked) [ZA-7-ME (3)]: the EC50 in data set [1] was 430 nM. The “protection of H1N1 virus infected mice” value in [2] is listed as “greater protection than ZA, CA or ME; also recorded: good activity”. Besides, in the data set on IL-6, the “level of IL-6 in serum” value is on record as “lower”. Moreover, the “mRNA encoding IL-6” value in data set [3] was “dose-dependent decreases”. Moreover, the “level of IFN-γ in serum” value in the data set on IFN-γ is on record as “lower”. In addition, the “mRNA encoding TNF-α” value in [5] is “dose-dependent decreases”. Also, the “survival of H5N1 infected mice (in words)” value in [6] is “did not provide better protection effect than ZA”. In addition, the IC50 in data set [7] was 8.6 to 56.3 nM.
With `CC(=O)NC1C(NC(=N)N)C=C(C(=O)O)OC1C(OC(=O)NCCCO)C(O)CO` (centres unmarked) [ZA-7-HP (6), 5-Acetylamino-6-[2,3-dihydroxy-1-(3-hydroxypropylcarbamoyloxy)propyl]-4-guanidino-5,6-dihydro-4H-pyran-2-carboxylic acid], in [1], the EC50 came out at 820 nM. The IC50 in [7] fell in the range of 11.7 to 19.8 nM.
For the compound `CC(=O)NC1C(NC(=N)N)C=C(C(=O)OCCCOC(=O)C=Cc2ccc(O)c(O)c2)OC1C(O)C(O)CO` (centres unmarked) [ZA-1-CA (9)], the EC50 in the data set on A/WSN/1933 (H1N1) virus (setting [9]) came out at 25 nM. The compound also gave an IC50 in data set [7] of 2850 nM.
In the same order, the values of `CC(=O)NC1C(NC(=N)N)C=C(C(=O)O)OC1C(OC(=O)NCCCOC(=O)c1ccc(O)c(O)c1)C(O)CO` (centres unmarked) [ZA-7-DHBA (5)] are 53 nM and 2.9 nM.
Regarding `Nc1ccc(O)c(C(=O)O)c1` [ME, mesalazine, reference compound], in the data set on A/WSN/1933 (H1N1) virus (setting [9]), the EC50 is over 100000 nM. For the same compound, in data set [3], the “mRNA encoding IL-6” value is listed as “dose-dependent decreases”. For the same compound, in data set [5], the “mRNA encoding TNF-α” value was “dose-dependent decreases”. The “NA inhibitory activity (in words)” value in data set [7] is on record as “did not exhibit any NA inhibitory activity”.
Take `CC(=O)NC1C(NC(=N)N)C=C(C(=O)O)OC1C(OC(=O)NCCCOC(=O)C=Cc1ccc2c(c1)OCO2)C(O)CO` (centres unmarked) [ZA-7-MCA (2)]: the IC50 in [7] is 5.4 to 7.9 nM.
As for `CC(=O)NC1C(NC(=N)N)C=C(C(=O)OCCCOC(=O)c2cc(N)ccc2O)OC1C(O)C(O)CO` (centres unmarked) [ZA-1-ME (11)], the EC50 in the data set with A/WSN/1933 (H1N1) virus (setting [9]) was determined as 16 nM. The compound also returned an IC50 in [7] of 996 nM.
For the compound `CC(=O)NC1C(NC(=N)NC(=O)C(C)c2ccc(CC(C)C)cc2)C=C(C(=O)O)OC1C(O)C(O)CO` (centres unmarked) [ZA-G-Ibu (47)], the EC50 with A/WSN/1933 (H1N1) virus (setting [9]) fell in the range of 18 to 20 nM. In [7], the IC50 lay within 44 to 81 nM.
As for `O=C(/C=C/c1ccc(O)c(O)c1)O[C@@H]1C[C@](O)(C(=O)O)C[C@@H](O)[C@H]1O` [chlorogenic acid, reference compound], the “anti-influenza activity (in words)” value in the data set on A/WSN/1933 (H1N1) virus was “inactive”.
Turning to `CC(=O)NC1C(NC(=N)N)C=C(C(=O)OCCCOC(=O)C=Cc2ccc3c(c2)OCO3)OC1C(O)C(O)CO` (centres unmarked) [ZA-1-MCA (10)], the EC50 in the data set on A/WSN/1933 (H1N1) virus (setting [9]) is 28 nM. Further, 3990 nM corresponded to half-maximal inhibition in [7] (IC50).
